Laboratory results as given in PMC7094952 (Nature, 2010).
Values after ≈ are worked out from the molar mass of the structure shown. Values joined by “and” are separate entries in the source; they are usually repeats but may differ in a detail not shown here. Identical values can stand only once. “Also recorded” adds a separate entry of the source. Like-named read-outs stand apart in the source and are kept apart here.

What was measured:
HCV replicon = HCV replicon inhibitor combination studies; type: cell-based, hepatitis C virus; settings: overall
Infectious BVDV = assay: BVDV cell protection assay; type: cell-based, bovine viral diarrhoea virus; settings: Bovine viral diarrhea virus isolates and strains, MDBK, in Bos taurus
genotype 1a replicon = assay: Genotype 1a replicon assay with 40% human serum; type: cell-based; settings: Hepatitis C virus, GETYPE1A, read-out: EC90 (protein-binding-adjusted)
[1] = system: panel of 10 RNA and DNA viruses; assay: organism not typed; type: cell-based
[2] = system: HCV genotype 1a replicon (NS5A variants); assay: Transient replication assay, genotype 1a wild type and resistant variants; type: cell-based; settings: Hepatitis C virus, GETYPE1A, most resistant 1a variant, L31V
[3] = system: genotype 1a replicon cells; assay: HCV replicon combination study with NS3 inhibitor in genotype 1a replicon cells; type: cell-based, hepatitis C virus; settings: ITMN-191, overall
HCV genotype 1 = assay: Single ascending-dose study in HCV-infected subjects: plasma HCV RNA; type: in vivo, human
genotype 1b replicon = assay: Genotype 1b replicon assay with 40% human serum; type: cell-based; settings: Hepatitis C virus, GETYPE1B, read-out: EC90 (protein-binding-adjusted)
[4] = Cytotoxicity in Huh-7 cells; type: cell-based; settings: human, Huh-7 cells (liver)
HCV genotype 1b = type: in vivo, human; settings: for mean reduction in HCV viral load / range of reduction in HCV viral load: genotype 1b subjects, 24 h
BVDV replicon = assay: BVDV replicon; type: cell-based, bovine viral diarrhoea virus; settings: Bovine viral diarrhea virus isolates and strains, Huh-7, in Bos taurus
[5] = Battery of in vitro receptor binding and enzymatic assays; settings: assessment of promiscuity
HCV genotype 1a = type: in vivo, human; settings: genotype 1a subjects, 24 h
[6] = Single ascending-dose study in healthy, non-HCV-infected subjects; type: in vivo, human
[7] = system: HCV replicons of genotypes 1a, 1b, 2a, 3a, 4a and 5a; assay: HCV replicons, all genotypes tested; type: cell-based; settings: Hepatitis C virus, read-out: EC50 values, all genotypes tested
[8] = Preclinical pharmacokinetics; type: in vivo, four preclinical species
genotype 1b HCV NS5A = molecular target: T1, genotype 1b HCV NS5A (Hepatitis C virus genotype 1b, UniProt Q9WMX2, S2204I); assay: NS5A inhibitor binding assay; settings: 1 μM, genotype 1b replicon cells, about 18 h, streptavidin agarose beads, immunoblot
T1 sequence (Q9WMX2 1973-2419 S2204I limits assumed): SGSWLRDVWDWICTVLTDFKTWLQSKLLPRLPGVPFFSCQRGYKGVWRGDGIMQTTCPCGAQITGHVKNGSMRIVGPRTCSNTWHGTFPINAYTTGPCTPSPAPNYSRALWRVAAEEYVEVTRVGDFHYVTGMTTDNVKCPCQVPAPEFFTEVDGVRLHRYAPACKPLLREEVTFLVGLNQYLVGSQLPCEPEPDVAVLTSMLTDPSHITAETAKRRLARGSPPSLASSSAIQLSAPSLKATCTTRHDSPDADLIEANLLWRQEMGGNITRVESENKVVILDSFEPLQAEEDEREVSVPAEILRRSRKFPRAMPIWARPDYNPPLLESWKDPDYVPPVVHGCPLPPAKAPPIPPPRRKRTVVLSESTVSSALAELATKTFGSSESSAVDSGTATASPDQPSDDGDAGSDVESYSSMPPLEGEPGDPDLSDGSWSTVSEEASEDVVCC

[9] = system: HCV replicon genotype 1b, Con1; assay: HCV genotype 1b; type: cell-based; settings: Hepatitis C virus, GETYPE1B, read-out: EC50 (subgenomic viral RNA replication)
BVDV NS5A = molecular target: T2, BVDV NS5A (Bovine viral diarrhea virus, UniProt P19711); assay: Biotin/streptavidin pull-down in BVDV replicons; type: binding, bovine viral diarrhoea virus; settings: replicons expressing BVDV RNA
T2 sequence (P19711 2774-3269 limits assumed): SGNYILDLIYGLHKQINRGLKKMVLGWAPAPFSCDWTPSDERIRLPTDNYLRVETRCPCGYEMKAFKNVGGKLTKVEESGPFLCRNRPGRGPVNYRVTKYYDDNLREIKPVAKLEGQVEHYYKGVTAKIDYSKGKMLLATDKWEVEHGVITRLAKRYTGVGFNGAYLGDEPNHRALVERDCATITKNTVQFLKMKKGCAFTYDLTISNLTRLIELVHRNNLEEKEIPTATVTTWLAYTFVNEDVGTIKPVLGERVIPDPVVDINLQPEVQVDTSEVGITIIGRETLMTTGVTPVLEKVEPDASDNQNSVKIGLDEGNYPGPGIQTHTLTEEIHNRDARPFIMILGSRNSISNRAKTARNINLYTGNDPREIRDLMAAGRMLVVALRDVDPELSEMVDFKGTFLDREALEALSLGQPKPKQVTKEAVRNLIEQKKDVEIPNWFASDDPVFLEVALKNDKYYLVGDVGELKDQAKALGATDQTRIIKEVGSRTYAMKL

HCV NS3 = HCV NS3 (Hepatitis C virus genotype 1b, UniProt Q9WMX2); assay: Biotin/streptavidin pull-down, immunoblot for NS3; type: binding; settings: genotype 1b replicon cells
Y93H replicon = Y93H replicon assay; type: cell-based; settings: Hepatitis C virus
HCV NS5B = HCV NS5B (Hepatitis C virus genotype 1b, UniProt Q9WMX2); assay: Biotin/streptavidin pull-down, immunoblot for NS5B; type: binding; settings: genotype 1b replicon cells
[10] = 1 mg single dose, 24 h after administration

For COC(=O)N[C@H](C(=O)N1CCC[C@H]1c1ncc(-c2ccc(-c3ccc(-c4cnc([C@@H]5CCCN5C(=O)[C@@H](NC(=O)OC)C(C)C)[nH]4)cc3)cc2)[nH]1)C(C)C [BMS-790052], the “Combination effect with Interferon-α2β (intron A)” value (HCV replicon) was “Synergistic”, the “Combination effect with nucleoside NS5B polymerase inhibitor NM-107” value (HCV replicon) was “Additive/synergistic” and the “Combination effect with non-nucleoside NS5B polymerase inhibitor” value (HCV replicon; palm site II allosteric inhibitor) was “Additive/synergistic”. It also gave an EC50 (Infectious BVDV) of 12 µM, an EC90 (genotype 1a replicon) of 0.28 ng/mL (≈ 0.379 nM) and an EC50 [1] greater than 10 µM. The EC50 [2] was roughly 0.02 µM, the “Combination effect with NS3 protease inhibitor” value [3] was “Additive/synergistic” and the “mean reduction in HCV viral load” value (HCV genotype 1; [10]) was 1.8 log10. The “range of reduction in HCV viral load” value (HCV genotype 1; [10]) was 0.2–3.0 log10, the “mean maximal HCV RNA decline” value (HCV genotype 1; 100 mg single dose) was 3.6 log10 and the “range of maximal HCV RNA decline” value (HCV genotype 1; 100 mg single dose) was 3.0–4.1 log10. For the same molecule, the EC90 (genotype 1b replicon) was 0.04 ng/mL (≈ 0.0541 nM), the CC50 [4] was 17 ± 1 µM and the “HCV RNA measurement at hour 144” value (HCV genotype 1b; 100 mg single dose, two individual subjects with genotype 1b) was “less than 25 IU ml^-1 and 35 IU ml^-1”. The “mean reduction in HCV viral load” value (HCV genotype 1b; 10 mg) was 3.6 log10, the “range of reduction in HCV viral load” value (HCV genotype 1b; 10 mg) was 3.1–4.0 log10 and the “mean reduction in HCV viral load” value (HCV genotype 1b; 100 mg) was 3.1 log10. For the same molecule, the “range of reduction in HCV viral load” value (HCV genotype 1b; 100 mg) was 2.7–3.4 log10, the EC50 (BVDV replicon) was 9 µM and the “Effects in battery of in vitro receptor binding and enzymatic assays” value [5] was “no significant effects”. The “Headache (most frequent adverse event), subjects reporting” value (HCV-infected subjects) was “four”, the Safety and tolerability (HCV-infected subjects, single oral doses up to 100 mg) was “safe and well tolerated” and the half-life (both, human, plasma, po) was 10 to 14 h. The “mean reduction in HCV viral load” value (HCV genotype 1a; 1 mg) was 1.8 log10, the “range of reduction in HCV viral load” value (HCV genotype 1a; 1 mg) was 0.2–3.0 log10 and the “mean reduction in HCV viral load” value (HCV genotype 1a; 10 mg) was 2.9 log10. The “range of reduction in HCV viral load” value (HCV genotype 1a; 10 mg) was 2.9–3.0 log10, the “mean reduction in HCV viral load” value (HCV genotype 1a; 100 mg) was 3.6 log10 and the “range of reduction in HCV viral load” value (HCV genotype 1a; 100 mg) was 3.5–3.6 log10. The “Drug concentrations at and beyond 24 h post-dose” value ([6]; all healthy subjects, versus EC90 for genotypes 1a and 1b) was “greater than the protein-binding-adjusted EC90”, the Exposure versus dose ([6]; healthy subjects, 1 to 200 mg oral solution) was “dose-proportional exposures” and the “Absorption after oral administration” value ([6]; healthy subjects, oral solution) was “readily absorbed”. The Safety and tolerability ([6]; healthy subjects, single oral doses up to 200 mg) was “safe and well tolerated”, the EC50 [7] was 0.009 to 0.146 nM and the Oral bioavailability ([8]; four preclinical species) was “orally bioavailable”. For the same molecule, the Liver distribution ([8]; preclinical species) was “distributes effectively to the liver”.

For O=C1N[C@H]2[C@H](CS[C@H]2CCCCC(=O)N2CCC[C@@H]2C(=O)Nc2ccc(/C=C/c3ccc(NC(=O)[C@H]4CCCN4C(=O)Cc4ccccc4)cc3)cc2)N1 [Compound 2], the “Binding to HCV NS5A (pull-down)” value (genotype 1b HCV NS5A) was “does not”.

In the case of O=C1N[C@H]2[C@H](CS[C@H]2CCCCC(=O)N2CCC[C@H]2C(=O)Nc2ccc(/C=C/c3ccc(NC(=O)[C@@H]4CCCN4C(=O)Cc4ccccc4)cc3)cc2)N1 [Compound 1], the EC50 [9] is reported as 0.033 µM, the “Binding to BVDV NS5A (pull-down)” value (BVDV NS5A) is reported as “failed to bind” and the “Binding to HCV NS5A (pull-down)” value (genotype 1b HCV NS5A) is reported as “pulled down efficiently; also recorded: binds”. For the same molecule, the NS3 in pull-down (HCV NS3) was “not detected”, the EC50 (Y93H replicon) was greater than 10 µM and the NS5B in pull-down (HCV NS5B) was “not detected”.
